The results in this text go back to US20240067617A1 (Albireo AB, priority 2022, published 2024).

In this experiment the target is T1, hIBAT (Homo sapiens, UniProt Q12908).
T1 construct: expressed in transfected cells; kept under Puromycin selection
T1 sequence (Q12908 1-348): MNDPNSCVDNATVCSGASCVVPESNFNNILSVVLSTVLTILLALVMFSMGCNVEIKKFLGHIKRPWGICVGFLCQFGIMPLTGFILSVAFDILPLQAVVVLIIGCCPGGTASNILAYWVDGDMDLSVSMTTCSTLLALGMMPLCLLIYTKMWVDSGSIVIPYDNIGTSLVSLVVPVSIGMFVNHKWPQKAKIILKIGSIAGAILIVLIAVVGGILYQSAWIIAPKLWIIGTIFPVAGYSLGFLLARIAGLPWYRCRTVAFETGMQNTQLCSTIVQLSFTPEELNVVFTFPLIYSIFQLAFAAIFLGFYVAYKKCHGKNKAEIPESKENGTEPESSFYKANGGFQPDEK
Put plainly: IBAT (h/m) assay: 3H-taurocholic acid uptake in human IBAT-overexpressing cells. It counts as cell-based. Conditions: 0.25 μM 3H-taurocholic acid + 5 μM cold taurocholic acid, 20 minutes at 37° C., highest test concentration 10 μM. The procedure, abridged:
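Human or mouse IBAT-overexpressing cells cultured 48 h, then exposed for 20 min at 37 °C to compounds (top 10 μM, 3-fold, 10 points; 0.2% DMSO) with 0.25 μM 3H-taurocholic acid plus 5 μM cold taurocholic acid. Uptake stopped on ice, cells washed with cold 1 mM taurocholic acid, radioactivity counted by scintillation.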

Take `CCCCC1(CC)CN(c2ccccc2)c2cc(SC)c(CSCC(=O)O)cc2S(=O)(=O)C1` (single isomer, unassigned) [2, enantiomer 1]: the IC50 was determined as 0.2 nM.
The value for `CCCCC1(C)CN(c2ccccc2)c2cc(SC)c(CSCC(=O)O)cc2S(=O)(=O)C1` (single isomer, unassigned) [5, enantiomer 1] was 0.7 nM.
The value for `CCCCC1(CC)CN(c2ccc(F)cc2)c2cc(SC)c(CSCC(=O)O)cc2S(=O)(=O)C1` (single isomer, unassigned) [7, enantiomer 1] was 0.4 nM.
